Assay type in all cases: cell-based
In one assay the test system is E. coli J2210. The conditions noted are these: J2210, 1 h.
Another assay concerns E. coli JW0013. Conditions: JW0013, 1 h.
The test system of assay [1] is Salmonella enterica serovar Typhimurium ATCC SL1344. Conditions: ATCC SL1344, 1 h.
The subject of assay [2] is Salmonella enterica serovar Enteritidis MH91989. Conditions: serovar Enteritidis MH91989, 1 h.
For another assay, the system named is E. coli JJ2489. The conditions noted are these: JJ2489, 1 h.

As usually defined, the MIC is the least concentration at which growth counts as inhibited. A high value points to a need for much substance.

≈ marks a conversion by molar mass, not a printed value. Where a SMILES comes first, the peptide text is derived from it.

For the compound `CC(C)C[C@H](NC(=O)[C@H](CCCNC(=N)N)NC(=O)[C@@H]1CCCN1C(=O)[C@H](CCCNC(=N)N)NC(=O)[C@@H]1CCCN1C(=O)[C@@H]1CCCN1C(=O)[C@H](CCCNC(=N)N)NC(=O)[C@@H]1CCCN1C(=O)[C@H](CCC(N)=O)NC(=O)[C@@H]1CCCN1C(=O)[C@H](CCCCN)NC(=O)[C@H](Cc1ccc(O)cc1)NC(=O)[C@@H](NC(=O)[C@@H]1CCCN1C(=O)[C@H](CCCNC(=N)N)NC(=O)[C@H](CC(N)=O)NC(=O)[C@H](CC(N)=O)NC(=O)CN)C(C)C)C(=O)O` [Api_I8K/H15R] (H-GNNRPVYKPQPRPPRPRL-OH), the MIC stood at 0.252 ± 0.087 µM (≈ 0.54 µg/mL) in the assay on E. coli J2210, 0.062 ± 0.027 µM (≈ 0.133 µg/mL) against E. coli JW0013, 0.192 ± 0.044 µM (≈ 0.411 µg/mL) in assay [1] and 0.096 ± 0.023 µM (≈ 0.206 µg/mL) in assay [2].
As for `CC(C)C[C@H](NC(=O)[C@H](CCCNC(=N)N)NC(=O)[C@@H]1CCCN1C(=O)[C@H](CCCNC(=N)N)NC(=O)[C@@H]1CCCN1C(=O)[C@@H]1CCCN1C(=O)[C@H](CCCNC(=N)N)NC(=O)[C@@H]1CCCN1C(=O)[C@H](CCC(N)=O)NC(=O)[C@@H]1CCCN1C(=O)[C@H](CCCNC(=N)N)NC(=O)[C@H](Cc1ccc(O)cc1)NC(=O)[C@@H](NC(=O)[C@@H]1CCCN1C(=O)[C@H](CCCNC(=N)N)NC(=O)[C@H](CC(N)=O)NC(=O)[C@H](CC(N)=O)NC(=O)CN)C(C)C)C(=O)O` [Api_I8R/H15R] (H-GNNRPVYRPQPRPPRPRL-OH), the MIC against E. coli JW0013 came to 0.048 ± 0.011 µM (≈ 0.104 µg/mL); in assay [2], 0.067 ± 0.033 µM (≈ 0.145 µg/mL).
For `CC[C@H](C)[C@H](NC(=O)[C@H](Cc1ccc(O)cc1)NC(=O)[C@@H](NC(=O)[C@@H]1CCCN1C(=O)[C@H](CCCCN)NC(=O)[C@H](CC(N)=O)NC(=O)[C@H](CC(N)=O)NC(=O)CN)C(C)C)C(=O)N1CCC[C@H]1C(=O)N[C@@H](CCC(N)=O)C(=O)N1CCC[C@H]1C(=O)N[C@@H](CCCNC(=N)N)C(=O)N1CCC[C@H]1C(=O)N1CCC[C@H]1C(=O)N[C@@H](CCCNC(=N)N)C(=O)N1CCC[C@H]1C(=O)N[C@@H](CCCNC(=N)N)C(=O)N[C@@H](CC(C)C)C(=O)O` [Api_R4K/H15R] (H-GNNKPVYIPQPRPPRPRL-OH), the MIC was found to be 0.133 ± 0.061 µM (≈ 0.279 µg/mL) against E. coli J2210; 0.048 ± 0.011 µM (≈ 0.101 µg/mL) in the assay on E. coli JW0013; 0.126 ± 0.052 µM (≈ 0.265 µg/mL) in assay [1]; 0.067 ± 0.033 µM (≈ 0.141 µg/mL) in assay [2]; 0.067 ± 0.033 µM (≈ 0.141 µg/mL) against E. coli JJ2489.
As for `CC(C)C[C@H](NC(=O)[C@H](CCCNC(=N)N)NC(=O)[C@@H]1CCCN1C(=O)[C@H](CCCNC(=N)N)NC(=O)[C@@H]1CCCN1C(=O)[C@@H]1CCCN1C(=O)[C@H](CCCNC(=N)N)NC(=O)[C@@H]1CCCN1C(=O)[C@H](CCC(N)=O)NC(=O)[C@@H]1CCCN1C(=O)[C@H](CCCCN)NC(=O)[C@H](Cc1ccc(O)cc1)NC(=O)[C@@H](NC(=O)[C@@H]1CCCN1C(=O)[C@H](CCCCN)NC(=O)[C@H](CC(N)=O)NC(=O)[C@H](CC(N)=O)NC(=O)CN)C(C)C)C(=O)O` [Api_R4K/I8K/H15R] (H-GNNKPVYKPQPRPPRPRL-OH), the MIC with E. coli J2210 was found to be 0.267 ± 0.097 µM (≈ 0.565 µg/mL); against E. coli JW0013, 0.096 ± 0.023 µM (≈ 0.203 µg/mL); in assay [2], 0.133 ± 0.061 µM (≈ 0.281 µg/mL); against E. coli JJ2489 it was 0.252 ± 0.087 µM (≈ 0.533 µg/mL).
As to `CC(C)C[C@H](NC(=O)[C@H](CCCNC(=N)N)NC(=O)[C@@H]1CCCN1C(=O)[C@H](CCCNC(=N)N)NC(=O)[C@@H]1CCCN1C(=O)[C@@H]1CCCN1C(=O)[C@H](CCCNC(=N)N)NC(=O)[C@@H]1CCCN1C(=O)[C@H](CCC(N)=O)NC(=O)[C@@H]1CCCN1C(=O)[C@H](CCCNC(=N)N)NC(=O)[C@H](Cc1ccc(O)cc1)NC(=O)[C@@H](NC(=O)[C@@H]1CCCN1C(=O)[C@H](CCCCN)NC(=O)[C@H](CC(N)=O)NC(=O)[C@H](CC(N)=O)NC(=O)CN)C(C)C)C(=O)O` [Api_R4K/I8R/H15R] (H-GNNKPVYRPQPRPPRPRL-OH), the MIC amounted to 0.252 ± 0.087 µM (≈ 0.54 µg/mL) in the assay on E. coli J2210, 0.096 ± 0.023 µM (≈ 0.206 µg/mL) in assay [2] and 0.133 ± 0.061 µM (≈ 0.285 µg/mL) in the assay on E. coli JJ2489.
`CC[C@H](C)[C@H](NC(=O)[C@H](CCCNC(=N)N)NC(=O)[C@@H](N)CCCNC(=N)N)C(=O)N[C@@H](CCCNC(=N)N)C(=O)N[C@@H](CCCCN)C(=O)N[C@@H](CCCNC(=N)N)C(=O)N1CCC[C@H]1C(=O)N1CCC[C@H]1C(=O)N[C@@H](CCCNC(=N)N)C(=O)N[C@@H](CC(C)C)C(=O)N1CCC[C@H]1C(=O)N[C@@H](CCCNC(=N)N)C(=O)N1CCC[C@H]1C(=O)N[C@@H](CCCNC(=N)N)C(=O)N1CCC[C@H]1C(=O)N[C@@H](CCCCN)C(=O)O` [Bac_P5K/R16K] (H-RRIRKRPPRLPRPRPK-OH): the MIC stood at 0.157 ± 0.054 µM (≈ 0.326 µg/mL) in the assay on E. coli J2210; 0.060 ± 0.014 µM (≈ 0.125 µg/mL) against E. coli JW0013; 0.120 ± 0.028 µM (≈ 0.25 µg/mL) in assay [1]; 0.120 ± 0.028 µM (≈ 0.25 µg/mL) in assay [2]; 0.120 ± 0.028 µM (≈ 0.25 µg/mL) with E. coli JJ2489.
With `CC[C@H](C)[C@H](NC(=O)[C@H](CCCNC(=N)N)NC(=O)[C@@H](N)CCCNC(=N)N)C(=O)N[C@@H](CCCCN)C(=O)N[C@@H](CCCCN)C(=O)N[C@@H](CCCNC(=N)N)C(=O)N1CCC[C@H]1C(=O)N1CCC[C@H]1C(=O)N[C@@H](CCCNC(=N)N)C(=O)N[C@@H](CC(C)C)C(=O)N1CCC[C@H]1C(=O)N[C@@H](CCCNC(=N)N)C(=O)N1CCC[C@H]1C(=O)N[C@@H](CCCNC(=N)N)C(=O)N1CCC[C@H]1C(=O)N[C@@H](CCCCN)C(=O)O` [Bac_R4K/P5K/R16K] (H-RRIKKRPPRLPRPRPK-OH), the MIC was found to be 0.167 ± 0.061 µM (≈ 0.343 µg/mL) in the assay on E. coli J2210; 0.060 ± 0.014 µM (≈ 0.123 µg/mL) in the assay on E. coli JW0013; 0.120 ± 0.028 µM (≈ 0.246 µg/mL) in assay [1]; 0.167 ± 0.061 µM (≈ 0.343 µg/mL) in assay [2]; 0.120 ± 0.028 µM (≈ 0.246 µg/mL) in the assay with E. coli JJ2489.
For the compound `CC[C@H](C)[C@H](NC(=O)[C@H](CCCNC(=N)N)NC(=O)[C@@H](N)CCCNC(=N)N)C(=O)N[C@@H](CCCCN)C(=O)N[C@@H](CCCCN)C(=O)N[C@@H](CCCNC(=N)N)C(=O)N1CCC[C@H]1C(=O)N1CCC[C@H]1C(=O)N[C@@H](CCCNC(=N)N)C(=O)N[C@@H](CC(C)C)C(=O)N1CCC[C@H]1C(=O)N[C@@H](CCCNC(=N)N)C(=O)N1CCC[C@H]1C(=O)N[C@@H](CCCNC(=N)N)C(=O)N1CCC[C@H]1C(=O)N[C@@H](CCCNC(=N)N)C(=O)O` [Bac_R4K/P5K] (H-RRIKKRPPRLPRPRPR-OH), the MIC worked out at 0.157 ± 0.054 µM (≈ 0.326 µg/mL) with E. coli J2210; 0.060 ± 0.014 µM (≈ 0.125 µg/mL) in the assay with E. coli JW0013; 0.120 ± 0.028 µM (≈ 0.25 µg/mL) in assay [1]; 0.120 ± 0.028 µM (≈ 0.25 µg/mL) in assay [2]; 0.120 ± 0.028 µM (≈ 0.25 µg/mL) with E. coli JJ2489.
As for `CC[C@H](C)[C@H](NC(=O)[C@H](CCCNC(=N)N)NC(=O)[C@@H](N)CCCNC(=N)N)C(=O)N[C@@H](CCCNC(=N)N)C(=O)N1CCC[C@H]1C(=O)N[C@@H](CCCNC(=N)N)C(=O)N1CCC[C@H]1C(=O)N1CCC[C@H]1C(=O)N[C@@H](CCCNC(=N)N)C(=O)N[C@@H](CC(C)C)C(=O)N1CCC[C@H]1C(=O)N[C@@H](CCCNC(=N)N)C(=O)N1CCC[C@H]1C(=O)N[C@@H](CCCNC(=N)N)C(=O)N1CCC[C@H]1C(=O)N[C@@H](CCCNC(=N)N)C(=O)O` [Bac_WT, reference compound] (H-RRIRPRPPRLPRPRPR-OH), the MIC was found to be 0.120 ± 0.028 µM (≈ 0.249 µg/mL) against E. coli J2210, 0.060 ± 0.014 µM (≈ 0.125 µg/mL) in assay [1], 0.120 ± 0.028 µM (≈ 0.249 µg/mL) in assay [2] and 0.120 ± 0.028 µM (≈ 0.249 µg/mL) against E. coli JJ2489.
